From patent US20080293727A1, “Novel sulfonamide inhibitors of aspartyl protease” (priority 1992, published 2008)
Structures can show the parent of a compound that is named as a salt. Where two headings read alike, the source gives them in different places.

Experiments:
HIV-1 protease = HIV-1 protease (Human immunodeficiency virus type 1 group M subtype B, UniProt P04585); assay: Inhibition constants against HIV-1 protease (method of Pennington et al.); assay type: biochemical
Excerpt: We measured the inhibition constants of the compounds listed in Table VII against HIV-1 protease using the above-cited method of Pennington et al.

[1] = tested on: HIVIIIb in CCRM-CEM cells; assay: Anti-viral potency in CCRM-CEM cells acutely infected with HIVIIIb, extracellular p24 antigen readout (method of Meek et al.); assay type: cell-based, HIV-1
Description: Compounds of formula I were tested for their antiviral potency in several virological assays.
The effect of the compounds on inhibiting the replication of the virus was measured by determining the HIV extracellular p24 antigen concentration using a commercial enzyme immunoassay (obtained from Coulter Corporation, Hialeah, Fla.).
In Table VIII, the following classifications have been employed: • A: inhibits HIV replication at concentration of 100 nM or less. • B: inhibits HIV replication at concentration of between 101 and 1,000 nM. • C: inhibits HIV replication at a concentration of between 1,001 and 10,000 nM. • D: inhibits HIV replication at a concentration of between 10,001 and 40,000 nM. • ND: not tested.

[2] = HIV-1 protease, read-out: Ki value
[3] = Human immunodeficiency virus 1, read-out: IC90 Range
[4] = CCRM-CEM cells, HIV replication, read-out: IC90 Range

Structure (SMILES) | Ki (HIV-1 protease; [2]) | IC90 [1, 3] | IC90 [1, 4] | Ki (HIV-1 protease) | IC90 ([1]; Human immunodeficiency virus 1, CCRM-CEM cells, HIV replication, read-out: IC90 Range)
CC(C)CN(CC(O)C(Cc1ccccc1)NC(=O)OCC1CCOC1)S(=O)(=O)c1ccc(Cl)c(Cl)c1 (stereo not shown) [Compound 85] | 4 nM | 1000 to 10000 nM |  |  | 
CC(=O)Nc1ccc(S(=O)(=O)N(CC(C)C)CC(O)C(Cc2ccccc2)NC(=O)OC2CCOC2)cc1 [Compound 86, N-(4-(((2 syn,3S)-2-Hydroxy-4-phenyl-3-((R)-tetrahydrofuran-3-yloxycarbonylamino)-butyl)-isobutyl-sulfamoyl-phenyl)-acetamide and N-(4-(((2 syn,3S)-2-Hydroxy-4-phenyl-3-((S)-tetrahydrofuran-3-yloxycarbonylamino)-butyl)-isobutyl-sulfamoyl)-phenyl)-acetamide] | 5 nM | 101 to 1000 nM |  |  | 
CC(C)CN(CC(O)[C@H](Cc1ccccc1)NC(=O)O[C@H]1CCOC1)S(=O)(=O)c1cccnc1 (stereo partly drawn) [Compound 144, Pyridine-3-sulfonic acid ((2 syn,3S)-2-hydroxy-4-phenyl-3-((S)-tetrahydrofuran-3-yloxycarbonylamino)-butyl)-isobutyl-amide, trifluoroacetic acid salt] | 8 nM |  | 101 to 1000 nM |  | 
CC(=O)N1CCc2ccc(S(=O)(=O)N(CC3CCCC3)CC(O)[C@H](Cc3ccccc3)NC(=O)O[C@H]3CCOC3)cc21 (stereo partly drawn) [Compound 157, 1-Acetyl-2,3-dihydro-1H-indole-6-sulfonic acid cyclopentylmethyl-((2 syn, 3S)-2-hydroxy-4-phenyl-3-((S)-tetrahydrofuran-3-yloxycarbonylamino)-butyl)-amide] | 0.7 nM |  | 101 to 1000 nM |  | 
CCC(C)C(NC(=O)OCc1ccccc1)C(=O)NC(Cc1ccccc1)C(O)CN(CC(C)C)S(=O)(=O)c1ccc(F)c(NC(C)=O)c1 [Compound 187, Benzyloxycarbonyl-(L)-isoleucine-N-(5-((3-amino-(2 syn,3S)-2-hydroxy-4-phenyl-butyl)-isobutyl-sulfamoyl)-2-fluoro-phenyl)-acetamide] | 0.3 nM | 101 to 1000 nM |  |  | 
CCC(C)C(NC(=O)c1cnc2ccccc2n1)C(=O)NC(Cc1ccccc1)C(O)CN(CC(C)C)S(=O)(=O)c1ccc(F)c(NC(C)=O)c1 (stereo not shown) [Compound 188] | 11.5 nM | 1000 to 10000 nM |  |  | 
CC(C)CN(C[C@@H](O)[C@H](Cc1ccccc1)NC(=O)O[C@H]1CCOC1)S(=O)(=O)c1ccc(O)c(N)c1 [Compound 1004] | 0.2 nM | < 100 nM |  |  | 
Nc1ccc(S(=O)(=O)N(CC2CCCC2)C[C@@H](O)[C@H](Cc2ccccc2)NC(=O)O[C@H]2CCOC2)cc1N [Compound 1015] |  |  |  | 19 nM | < 100 nM
